US20210299260A1, “THERAPEUTIC CONJUGATES” (Ariel Scientific Innovations Ltd., priority 2018, published 2021)

Experiments:
[1] = literature report; cited from earlier work
[2] = test system: hepatocellular carcinoma HepG2 cells; test: Decomposition and metabolite detection in HepG2 cells (medium versus cell lysate), LC-MS; format: in vitro ADME
Description: (§1) The results for DTIC are consistent with the reported stability of the control drug in various hydrolytic media. In addition, Compound 1 decomposition has been studied by hepatic cytochrome P450 induction in hepatocellular carcinoma HepG2 cells using LC-MS (FIG. 1D). […] The decomposition of Compound 1 was examined in cell medium and in cell lysate, while the identification of metabolites was carried out solely in cell lysate.
It is assumed that this metabolite is the result of oxidation of Compound 1 by hepatic cytochrome P450 and subsequent degradation of two dimethyl triazene tethers in agreement with the mechanism of action of dacarbazine. The observed stability of Compound 1 in PBS potentiates its pharmacological utility during circulation in blood. Therefore, it is concluded that the stability of Compound 1 is sufficient for proceeding to animal models.

physchem = format: physicochemical; settings: for half-life: buffer
Description: These studies were performed for Compound 1 at two pH values: 4.6 and 7.4, and compared to triazene drug dacarbazine (DTIC). These chosen pHs mimic relatively acidic cancer intracellular (pH 4.6) and slightly basic physiological (pH 7.4) environments.
as §1

A172 GBM cells = test: Intracranial A172 GBM xenograft model in nude mice (weight, survival, histopathology); settings: for brain structure in brain sections / tumor area, tumor distribution and invasion in brain sections: H&E stained brain sections at termination; for brain structure in brain sections: FIG. 4; for brain structure in brain sections / tumor area, tumor distribution and invasion in brain sections / body weight gain of tumor-bearing mice / survival of tumor-bearing mice: Compound 1 50 mg/kg, TMZ 25 mg/kg; for body weight gain of tumor-bearing mice / survival of tumor-bearing mice: i.p. once daily, five injections; for body weight gain of tumor-bearing mice: FIG. 2; for survival of tumor-bearing mice: FIG. 3A; for tolerability to treatment: mice bearing GBM tumors, reflected by body weight and survival
Description: The efficacy of Compound 1 in inhibition of intracranial malignant brain glioblastoma growth and survival in nude mice was evaluated using nude mice that were implanted with 5×10^5 A172 GBM cells in the right striatum, followed by consequent once daily five intraperitoneal injections with the vehicle, TMZ (25 mg/kg) and Compound 1 (50 mg/kg), on the tenth day after glioblastoma implantation.
Mice brains were collected at termination day determined by appearance of severe clinical signs within tumor progression and invasion in brain tissue. Brains were fixed with 4% PFA, paraffin embedded and serially cut in to 5 μm. Three slides within a distance of 100 μm apart were sampled for each brain, and stained with hematoxyline-eosin dyes (H&E). Tumor area, distribution and invasion in to brain tissue were observed under light microscopy.

[3] = pH 7.4; cited from earlier work
[4] = listed as DKP-dimethyltriazene conjugate

Q: Which BBB permeability [1] does the source give for `O=C(O)C1CCCNC1` (centres unmarked) [nipecotic acid] here?
A: did not show permeability

Q: For N-Me-Phe-(N-Me-Phe)3-CONH2, which BBB permeability [1] is on record?
A: High BBB-permeability

Q: With `CN(C)/N=N/c1ccc(C[C@H]2C(=O)N(C)[C@@H](Cc3ccc(/N=N/N(C)C)cc3)C(=O)N2C)cc1` [Compound 1, (3S,6S)-3,6-bis(4-((E)-3,3-dimethyltriaz-1-en-1-yl)benzyl)-1,4-dimethylpiperazine-2,5-dione] as the compound, how does the “decomposition in cell medium” value ([2]; HepG2, incubation in cell medium, FIG. 1C) read?
A: continuous decomposition

Q: And the “accumulation/decomposition in cell lysate” value ([2]; HepG2 cell lysate, FIG. 1C)?
A: gradually accumulated within an hour of incubation and decomposed subsequently

Q: And the “main metabolite detected in cell lysate” value ([2]; HepG2 cell lysate, LC-MS, FIG. 1D)?
A: containing monomethyl triazene (MTIC like) and aniline (AIC like) groups

Q: What about the half-life (physchem; pH 4.6) of the same compound?
A: 288 min

Q: And the “stability in PBS buffer” value (physchem; pH 7.4)?
A: sufficient stability

Q: And the “brain structure in brain sections” value (A172 GBM cells)?
A: normal brain structure

Q: What about the “tumor area, tumor distribution and invasion in brain sections” value (A172 GBM cells) of the same compound?
A: noticeable reduction

Q: What about the “body weight gain of tumor-bearing mice” value (A172 GBM cells) of the same compound?
A: normal weight gain

Q: And the “body weight gain of tumor-bearing mice” value (A172 GBM cells; [4])?
A: no weight loss

Q: What about the “survival of tumor-bearing mice” value (A172 GBM cells) of the same compound?
A: prominent effect on tumor bearing mice survival rate

Q: What about the “survival of tumor-bearing mice” value (A172 GBM cells; [4]) of the same compound?
A: superior activity compared to TMZ in overall survival

Q: And the tolerability to treatment (A172 GBM cells)?
A: good tolerability

Q: For `NCCCC(=O)O` [γ-aminobutyric acid], which BBB permeability [1] is on record?
A: did not show permeability

Q: With `CN(C)/N=N/c1[nH]cnc1C(N)=O` [DTIC, dacarbazine, reference compound] as the compound, how does the half-life (physchem; pH 4.6) read?
A: 306 min

Q: And the half-life (physchem; pH 7.4)?
A: 612 min

Q: With `NCC(=O)CCC(=O)O` [5-aminolevulinic acid] as the compound, how does the BBB permeability [1] read?
A: did not show permeability

Q: Which results are given for `Cn1nnc2c(C(N)=O)ncn2c1=O` [TMZ, Temozolomide, reference compound]?
A: plasma half-life [3]: 1.8 h; brain structure in brain sections (A172 GBM cells): both lateral and third ventricles were significantly enlarged; tumor area, tumor distribution and invasion in brain sections (A172 GBM cells): noticeable reduction; body weight gain of tumor-bearing mice (A172 GBM cells): Significant body weight gain reduction; tolerability to treatment (A172 GBM cells): relatively toxic and poorly tolerable
